Reference: patent US20100298329A1, “TOLPERISONE AND TOLPERISONE-LIKE DRUGS FOR THE TREATMENT OF K-RAS ASSOCIATED CANCERS” (Massachusette Institute of Technology, priority 2007, published 2010)

Assays:
[1] = system: subcutaneous K-ras G12D-expressing mouse fibroblast tumors; test: Xenograft tumor size in mice; type: in vivo; details: 100-200 mg/kg once a day, 7 consecutive days, vs matched DMSO controls
Method: The effectiveness of one or more compounds of the invention (e.g., lanperisone) was evaluated in vivo using xenografts. The effect on xenograft tumor size was evaluated in mice by administering a compound of the invention at a dose of 100-200 mg/kg once a day (e.g., via oral administration in water). The compounds were also administered intraperitoneally. Mice harboring established, subcutaneous tumors measuring at least 1 cm were treated with lanperisone for 7 consecutive days. […] These findings confirm the in vivo efficacy of lanperisone in targeting K-ras mutant tumors.

[2] = system: K-Ras mutant cells (cells with Kras G12D mutation); test: FACS analysis of cell death and proliferation (Tunnel/PI staining, DNA content, BrdU staining); type: cell-based
Method: The effects of lanperisone on cell proliferation and cell death were evaluated based on a FACS analysis. Tunnel staining (for dying cells) and PI staining (excluded by living cells) were used to evaluate cell death in lanperisone and DMSO treated wild-type and K-Ras mutant cells (cells with a Kras G12D mutation).

[3] = system: wild-type and K-rasG12D MEFs; test: Gene expression profiling (GSEA, Connectivity Map); type: cell-based, mouse
Method: (§1) To study the selectivity of lanperisone for K-ras mutant cells, gene expression profiling experiments were carried out using wild-type and K-rasG12D MEFs treated with lanperisone or control DMSO. The gene expression signatures associated with lanperisone treatment were compared with those observed upon 1) manipulation of any of a number of defined biological pathways (i.e., Gene Set Enrichment Analysis or GSEA) and 2) treatment with small molecules with known targets including FDA-approved drugs (ie the Connectivity Map or CMAP). […] This mechanism of cell death occurs in both mouse and human cells, as well as in both fibroblast and epithelial cell lines.

[4] = system: K-rasG12D-expressing cells; test: Additional biochemical experiments on mechanism of cell death (reactive oxygen species); type: cell-based; details: mouse and human cells, fibroblast and epithelial cell lines
Method: as §1

K-Ras mutant cells = test: BrdU cytoblot assay (proliferation by BrdU incorporation); type: cell-based, mouse; details: proliferation based upon incorporation of BrdU
Source text: (§2) The differential activity of tolperisone confirmed using other assays, such as BrdU cytoblot assay, which measures proliferation based upon incorporation of BrdU.

[5] = system: mouse embryonic fibroblasts (MEFs) expressing oncogenic K-Ras; test: Cell Titer Glo cell viability screen, mutant K-Ras vs wild-type MEFs; type: cell-based; details: cell viability by intracellular ATP
Source text: These MEFs have been extensively characterized at the molecular and cellular level. […] The inclusion of wild-type cells allowed for the elimination of general cytotoxic compounds and for the targeting of molecular pathways activated by oncogenic K-Ras.
as §2

| SMILES | tumor size at the end of the treatment period [1] | cell cycle phase specificity of cell death (cellular DNA content) ([2]; FACS, FIG. 3B) | cellular proliferation (BrdU staining) ([2]; FACS, FIG. 3C) | cell death (Tunnel staining / PI staining) ([2]; at 6 hours, 10 μM and 20 μM, Kras G12D cells relative to wild-type cells) | Connectivity Map connectivities with other classes of small molecules ([3]; calcium modulators, HDAC inhibitors, HIF activators) | GSEA pathway enrichment ([3]; lanperisone-treated MEFs vs DMSO) | mechanism of selective cell killing [4] | differential activity in BrdU cytoblot assay (K-Ras mutant cells) | concentration at which differential activity was shown (as low as) [5] [microns] |
| --- | --- | --- | --- | --- | --- | --- | --- | --- | --- |
| C[C@H](CN1CCCC1)C(=O)c1ccc(C(F)(F)F)cc1 [lanperisone] | significantly smaller tumors than matched controls | not specific to any particular phase of the cell cycle | no specific defect in cellular proliferation | preferentially caused cell death in K-Ras mutant cells | Numerous connectivities | marked enrichment of hypoxia as well as oxidative stress pathways | selectively kills K-rasG12D-expressing cells by inducing reactive oxygen species |  |  |
| Cc1ccc(C(=O)C(C)CN2CCCCC2)cc1 (stereo not drawn) [tolperisone] |  |  |  |  |  |  |  | confirmed | 5 |
